Assay results reported in patent US5298522A, “6-chloro-5-fluoro-3-(2-thenoyl)-2-oxindole-1-carboxamide as an analgesic and anti-inflammatory agent while maintaining a normal urine protein/creatinine ratio” (Pfizer Inc., priority 1993, dated 1994).

What was measured:
[1] = Double blind, placebo controlled, crossover study, urine protein/creatinine ratio (Example 2); format: in vivo, human; conditions: 80 mg/day, four weeks
Experimental: (§1) "Significant increase or decrease" for proteinuria effects is herein defined as an increase or decrease having statistical significance as determined by conducting an analysis of variance (ANOVA). First, a regression line is fitted to protein/creatinine (PC) ratio data for each patient and treatment period, and a slope is determined. The slope is then analyzed using an ANOVA to test for sequence, period and treatment effects, to determine if a difference exists between the control and treated groups.
(§2) Large amounts of creatinine and much smaller amounts of protein are normally excreted in the urine of normal human subjects, and a protein/creatinine ratio of approximately 0.05 to 0.1 is usually maintained.
Using a double blind, placebo controlled, crossover design, 6-chloro-5-fluoro-3-(2-thenoyl)-2-oxindole-1-carboxamide was administered to 25 patients at a dose level of 80 mg/day. Patients were randomized to receive either 6-chloro-5-fluoro-3-(2-thenoyl)-2-oxindole-1-carboxamide for four weeks followed by placebo for four weeks, or to receive placebo for four weeks followed by 6-chloro-5-fluoro-3-(2-thenoyl)-2-oxindole-1-carboxamide for four weeks. Patients could switch to the second leg of the treatment regimen earlier if symptoms became intolerable. […] Urine protein/creatinine ratio was determined at baseline and weekly during the study. […]

[2] = test system: PBQ-induced abdominal stretching in mice; assay: Blockage of abdominal stretching induced by 2-phenyl-1,4-benzoquinone (PBQ); format: in vivo, mice (Carworth males, albino CF-1 strain); conditions: oral, one hour before PBQ 2 mg/kg intraperitoneally
Experimental: The method is based on that of Siegmund et al., Proc. Soc. Exp. Biol. Med., 95, 729-731, (1957), as adapted for high throughput [see further Milne and Twomey, Agents and Actions, 10, 31-37, (1980)]. The mice used in these experiments are Carworth males, albino CF-1 strain, weighing 18-20 g. All mice are fasted overnight prior to drug administration and testing.
6-Chloro-5-fluoro-3-(2-thenoyl)-2-oxindole-1-carboxamide is dissolved or suspended in a vehicle consisting of ethanol (5%), emulphor 620 (a mixture of polyoxyethylene fatty acid esters, 5%) and saline (90%). This vehicle also served as control. Doses are on a logarithmic scale (i.e., . . . 0.32, 1.0, 3.2, […] . . . mg/kg), and are calculated from weights of the salt when applicable. The route of administration is oral, with concentrations varied to allow a constant dosage of 10 ml/kg of mouse. The aforesaid method of Milne and Towney is used to determine efficacy and potency. […] Individual mice are then immediately placed in a warmed lucite chamber, and, starting five minutes after PBQ administration, the number of abdominal constrictions during the subsequent 5 minutes are recorded. The degree of analgesic protection, Maximal Possible Effect (% MPE), is calculated on the basis of suppression of abdominal constriction relative to counts from concurrent control animals run on the same day. […]

[3] = Proteinuria in patients; format: in vivo, human; conditions: for induction of proteinuria: in some patients, dose not stated
[4] = test system: carrageenin-induced rat-foot edema; assay: Carrageenin-induced rat-foot edema test; format: in vivo, rats (adult, male, albino); conditions: by gavage, one hour before carrageenin
Excerpt: [Winter et al., Proc. Soc. Exp. Biol. Med., 111, 544, (1963)].
Unanesthetized, adult, male, albino rats of 150 g to 190 g body weight are numbered, weighed, and an ink mark placed on the right lateral malleolus. Each paw is immersed in mercury exactly to the ink mark. The mercury is contained in a glass cylinder, connected to a Statham Pressure Transducer. The output from the transducer is fed through a control unit to a microvoltameter. The volume of mercury displaced by the immersed paw is read. The drug is given by gavage. One hour after drug administration, edema is induced by injection of 0.05 ml of 1% solution of carrageenin into the plantar tissue of the marked paws. Immediately thereafter, the volume of the injected foot is measured. The increase in foot volume 3 hours after the injection of carrageenin constitutes the individual inflammatory response.

[5] = Double blind placebo-controlled study, urine protein/creatinine ratio (Example 1); format: in vivo, human
Experimental: as §1, §2
Using a double blind placebo-controlled design, 6-chloro-5-fluoro-3-(2-thenoyl)-2-oxindole-1-carboxamide was administered to 36 patients at dose levels of 40, 80, 160 and 320 mg, once daily. A single dose was given on day 1, followed by a seven day washout period, and then dosing was continued for a further 21 days. […] In addition, following the 2nd, 8th and 22nd dose; and 240 hours after the last dose, one 20 ml aliquot of urine, following the first am void but prior to the administration of study medication, was withdrawn for measurement of quantitative protein and creatinine.

Structure (SMILES) | change in urine protein/creatinine ratio during treatment [1] | urine protein/creatinine ratio, drug vs placebo treatment ([1]; crossover) | analgesic activity [2] | induction of proteinuria [3] | anti-inflammatory activity [4] | proteinuria ([5]; 320 mg/day) | urine protein/creatinine ratio, drug treated groups vs placebo treated groups ([5]; 40, 80, 160 and 320 mg once daily, single dose, seven day washout, then further 21 days) | patients with proteinuria ([3]; 80 mg/day, within four weeks) | course of proteinuria ([3]; 80 mg/day, upon discontinuation of medication)
NC(=O)N1C(=O)C(C(=O)c2cccs2)c2cc(F)c(Cl)cc21 (stereo not shown) [6-Chloro-5-fluoro-3-(2-thenoyl)-2-oxindole-1-carboxamide] | No significant changes | no significant differences | possess analgesic activity | does not induce proteinuria | possesses anti-inflammatory activity | does not cause proteinuria | no significant differences |  | 
NC(=O)N1C(=O)C(C(=O)c2cccs2)c2cc(Cl)ccc21 (stereo not shown) [5-chloro-3-(2-thenoyl)-2-oxindole-1-carboxamide] |  |  |  | induce non-progressive, reversible proteinuria in some patients |  |  |  | 10-15% | non-progressive and reversible upon discontinuation of medication
